Laboratory results published in patent publication US20230109839A1, “THERAPEUTIC AGENT FOR TAUOPATHIES” (SUMITOMO PHARMA CO., LTD., priority 2020, published 2023).

Biological target: T1, human Nav1.1 (Homo sapiens, UniProt P35498)
T1 construct: host or cells: HEK293
Test: Amplification of Nav1.1-derived voltage-gated sodium current (Nav1.1 current), automated patch clamp (Test 1)
Format: cell-based
Conditions: HEK293 cell line stably expressing human Nav1.1; for activation at 1 µM: HEK293, Concentration for evaluation 1 μM
Outline: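 Compound-induced change in ramp-evoked sodium current peak and AUC was expressed as 100×post/pre ratio minus 100. Recordings used automated patch clamp in voltage-clamp mode on a stable human Nav1.1 HEK293 line, including only cells above 500 pA. Compounds were delivered in extracellular fluid containing 1% DMSO.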

[1] = Concentration for evaluation 10 μM
[2] = Concentration for evaluation 1 μM
[3] = Concentration for evaluation 3 μM
[4] = read-out: Nav1.1 current amplification rate (%)

| SMILES | Nav1.1 current amplification rate (%) [1] | other results |
| --- | --- | --- |
| CC1CC=C(c2ccc(=O)n(CC(=O)N3CC=C(c4ccccn4)CC3)n2)CC1 (stereo not drawn) [Example 420] | 39% |  |
| CC1(C)CC=C(c2ccc(=O)n(CC(=O)Nc3ccn4ccnc4c3)n2)CC1 [Example 425] | 283% |  |
| CC1(C)CC=C(c2ccc(=O)n(CC(=O)Nc3ccc4c(c3)OCC4)n2)CC1 [Example 426] | 244% |  |
| CC1(C)CC=C(c2ccc(=O)n(CC(=O)N3CCc4c(N5CCOCC5)cccc43)n2)CC1 [Example 432] |  | Nav1.1 current amplification rate (%) [2]: 280% |
| CC1(C)CC=C(c2ccc(=O)n(CC(=O)N3CCc4c(C5CN(C(=O)CO)C5)cccc43)n2)CC1 [Example 437] |  | Nav1.1 current amplification rate (%) [3]: 582% |
| CC1(C)CC=C(c2ccc(=O)n(CC(=O)N3CCc4c(C5CN(C6COC6)C5)cccc43)n2)CC1 [Example 438] |  | Nav1.1 current amplification rate (%) [3]: 404% |
| COc1cc(=O)n(CC(=O)Nc2ccc3ocnc3c2)nc1C1=CCC(C)(C)CC1 [Example 451] | 365% |  |
| Cc1ccc(-c2ccc(=O)n(CC(=O)Nc3ccc4ocnc4c3)n2)cn1 [Example 452] | 10% |  |
| O=C(Cn1nc(-c2ccc(C(F)(F)F)nc2)ccc1=O)Nc1ccc2ocnc2c1 [Example 453] | 15% |  |
| O=C(Cn1nc(-c2cc(Cl)cs2)ccc1=O)Nc1ccc2ocnc2c1 [Example 454] | 157% |  |
| Cc1ccc(-c2ccc(=O)n(CC(=O)Nc3ccc4ocnc4c3)n2)s1 [Example 455] | 131% |  |
| COc1cc(C2=CCC(C)(C)CC2)nn(CC(=O)Nc2ccn3ccnc3c2)c1=O [Example 456] | 224% |  |
| O=C(Cn1nc(C2=CCCC2)ccc1=O)Nc1ccn2ccnc2c1 [Example 457] |  | Nav1.1 current amplification rate (%) (Concentration for evaluation 50 μM): 29% |
| O=C(Cn1nc(C2=CCCCC2)ccc1=O)Nc1ccn2ccnc2c1 [Example 458] | 24% |  |
| COc1cc(=O)n(CC(=O)Nc2ccn3ccnc3c2)nc1C1=CCC(C)(C)CC1 [Example 459] | 118% |  |
| Cc1cc(C2=CCC(C)(C)CC2)nn(CC(=O)Nc2ccn3ccnc3c2)c1=O [Example 460] | 221% |  |
| Cc1cc(=O)n(CC(=O)Nc2ccn3ccnc3c2)nc1C1=CCC(C)(C)CC1 [Example 461] | 337% |  |
| COc1cc(C2=CCC(C(F)(F)F)CC2)nn(CC(=O)Nc2ccn3ccnc3c2)c1=O (stereo not drawn) [Example 462] | 124% |  |
| COc1cc(C2=CCC(C)CC2)nn(CC(=O)Nc2ccn3ccnc3c2)c1=O (stereo not drawn) [Example 463] | 218% |  |
| O=C(Cn1nc(C2=CCC(F)(F)CC2)ccc1=O)Nc1ccn2ccnc2c1 [Example 464] | 18% |  |
| CC1(C)CC=C(c2ccc(=O)n(CC(=O)Nc3ccn4ccnc4c3)n2)C1 [Example 465] | 186% |  |
| COc1cc(-c2cc(Cl)cs2)nn(CC(=O)Nc2ccn3ccnc3c2)c1=O [Example 466] | 233% |  |

| SMILES | Nav1.1 current amplification rate (%) [1] | other results |
| --- | --- | --- |
| O=C(Cn1nc(-c2cc(Cl)cs2)ccc1=O)Nc1ccn2ccnc2c1 [Example 467] |  | Nav1.1 current amplification rate (%) [2]: 80% |
| COc1cc(C2=CCC(C)(C)CC2)nn(CC(=O)N2CCc3c(N4CCOCC4)cccc32)c1=O [Example 468] |  | Nav1.1 current amplification rate (%) [2]: 275% |
| COc1cc(=O)n(CC(=O)N2CCc3c(N4CCOCC4)cccc32)nc1C1=CCC(C)(C)CC1 [Example 470] | 522% |  |
| COc1cc(C2=CCC(C)CC2)nn(CC(=O)N2CCc3c(N4CCOCC4)cccc32)c1=O (stereo not drawn) [Example 473] | 487% |  |
| COc1cc(C2=CCC(C(F)(F)F)CC2)nn(CC(=O)N2CCc3c(N4CCOCC4)cccc32)c1=O (stereo not drawn) [Example 474] | 235% |  |
| COc1cc(=O)n(CC(=O)N2CCc3c(N4CCOCC4)cccc32)nc1C1=CCC(C(F)(F)F)CC1 (stereo not drawn) [Example 476] | 343% |  |
| CC1CC=C(c2ccc(=O)n(CC(=O)N3CCc4c(N5CCOCC5)cccc43)n2)C1 (stereo not drawn) [Example 477] | 398% |  |
| O=C(Cn1nc(C2=CCC3(CC2)CC3(F)F)ccc1=O)N1CCc2c(N3CCOCC3)cccc21 (stereo not drawn) [Example 478] |  | Nav1.1 current amplification rate (%) [3]: 345% |
| COc1cc(-c2cc(Cl)cs2)nn(CC(=O)N2CCc3c(N4CCOCC4)cccc32)c1=O [Example 479] | 420% |  |
| O=C(Cn1nc(C2=CCCCC2)ccc1=O)N1CCc2c(N3CCOCC3)cccc21 [Example 480] |  | Nav1.1 current amplification rate (%) [2]: 110% |
| O=C(Cn1nc(C2=CCCC2)ccc1=O)N1CCc2c(N3CCOCC3)cccc21 [Example 481] | 128% |  |
| COc1cc(C2=CCC(C(F)(F)F)CC2)nn(CC(=O)N2CCN(c3cncc(F)c3)CC2)c1=O (stereo not drawn) [Example 482] | 219% |  |
| COc1cc(=O)n(CC(=O)N2CCN(c3cncc(F)c3)CC2)nc1C1=CCC(C(F)(F)F)CC1 (stereo not drawn) [Example 486] | 148% |  |
| COc1cc(C2=CCC(C)CC2)nn(CC(=O)N2CCN(c3cncc(F)c3)CC2)c1=O (stereo not drawn) [Example 488] | 376% |  |
| CC1CCN(c2cnc3cnn(CC(=O)Nc4ccn5ncnc5c4)c3n2)CC1 [Example 572, 2-[6-(4-Methylpiperidin-1-yl)-1H-pyrazolo[3,4-b]pyrazin-1-yl]-N-([1,2,4]triazolo[1,5-a]pyridin-7-yl)acetamide] |  | activation at 1 µM [4]: 49% |
| CC(C)CN(C)c1cnc2cnn(CC(=O)Nc3ccn4ncnc4c3)c2n1 [Example 573, 2-{6-[Methyl(2-methylpropyl)amino]-1H-pyrazolo[3,4-b]pyrazin-1-yl}-N-([1,2,4]triazolo[1,5-a]pyridin-7-yl) acetamide] |  | activation at 1 µM [4]: 44% |
| Cc1ccc(-c2cnc3cnn(CC(=O)Nc4ccn5ncnc5c4)c3n2)c(F)c1 [Example 574, 2-[6-(2-Fluoro-4-methylphenyl)-1H-pyrazolo[3,4-b]pyrazin-1-yl]-N-([1,2,4]triazolo[1,5-a]pyridin-7-yl)acetamide] |  | activation at 1 µM [4]: 303% |
| Cc1cnc(-c2cnc3cnn(CC(=O)Nc4ccn5ncnc5c4)c3n2)s1 [Example 575, 2-[6-(5-Methyl-1,3-thiazol-2-yl)-1H-pyrazolo[3,4-b]pyrazin-1-yl]-N-([1,2,4]triazolo[1,5-a]pyridin-7-yl)acetamide] |  | activation at 1 µM [4]: 84% |
| O=C(Cn1ncc2ncc(C3CCC3)nc21)Nc1ccn2ncnc2c1 [Example 576, 2-(6-Cyclobutyl-1H-pyrazolo[3,4-b]pyrazin-1-yl)-N-([1,2,4]triazolo[1,5-a]pyridin-7-yl)acetamide] |  | activation at 3 µM (HEK293, Concentration for evaluation 3 μM, read-out: Nav1.1 current amplification rate (%)): 14% |
| CCN(C)c1cnc2cnn(CC(=O)Nc3ccn4ncnc4c3)c2n1 [Example 623] | 25% |  |
| CN(CC1CC(F)(F)C1)c1cnc2cnn(CC(=O)Nc3ccn4ncnc4c3)c2n1 [Example 624] |  | Nav1.1 current amplification rate (%) [2]: 61% |
| CN(CC1CCC1)c1cnc2cnn(CC(=O)Nc3ccn4ncnc4c3)c2n1 [Example 625] |  | Nav1.1 current amplification rate (%) [2]: 255% |

Continued, in another order:

| Nav1.1 current amplification rate (%) [1] | SMILES | other results |
| --- | --- | --- |
| 172% | CC1(C)CC=C(c2ccc(=O)n(CC(=O)Nc3ccn4nccc4c3)n2)CC1 [Example 427] |  |
| 28% | COc1ccc2c(c1)CCN2C(=O)Cn1nc(C2=CCC(C)(C)CC2)ccc1=O [Example 430] |  |
| 11% | COc1cccc2c1CCN2C(=O)Cn1nc(C2=CCC(C)(C)CC2)ccc1=O [Example 431] |  |
| 192% | CN1CCN(c2cccc3c2CCN3C(=O)Cn2nc(C3=CCC(C)(C)CC3)ccc2=O)CC1 [Example 433] |  |
| 232% | COC1CN(c2cccc3c2CCN3C(=O)Cn2nc(C3=CCC(C)(C)CC3)ccc2=O)C1 [Example 434] |  |
| 262% | COCOc1cccc2c1CCN2C(=O)Cn1nc(C2=CCC(C)(C)CC2)ccc1=O [Example 435] |  |
| 226% | CC1(C)CC=C(c2ccc(=O)n(CC(=O)N3CCc4c(OC5COC5)cccc43)n2)CC1 [Example 436] |  |
| 87% | CC1(C)CC=C(c2ccc(=O)n(CC(=O)N3CCN(c4ccccn4)CC3)n2)CC1 [Example 439] |  |
| 196% | CC1(C)CC=C(c2ccc(=O)n(CC(=O)N3CCN(c4cccnc4)CC3)n2)CC1 [Example 440] |  |
| 30% | CC1(C)CC=C(c2ccc(=O)n(CC(=O)N3CCC4(CCOCC4)CC3)n2)CC1 [Example 441] |  |
| 414% | Cc1cncc(N2CCN(C(=O)Cn3nc(C4=CCC(C)(C)CC4)ccc3=O)CC2)c1 [Example 442] |  |
| 114% | Cc1ccc(N2CCN(C(=O)Cn3nc(C4=CCC(C)(C)CC4)ccc3=O)CC2)cn1 [Example 443] |  |
| 292% | CC1(C)CC=C(c2ccc(=O)n(CC(=O)N3CCN(c4cncc(F)c4)CC3)n2)CC1 [Example 444] |  |
| 633% | CC1(C)CC=C(c2ccc(=O)n(CC(=O)N3CCc4c(N5CCOCC5)cccc43)n2)C1 [Example 475] |  |
| 175% | CC1(C)CC=C(c2ccc(=O)n(CC(=O)N3CCN(c4cncc(F)c4)CC3)n2)C1 [Example 483] |  |
| 224% | CC1CC=C(c2ccc(=O)n(CC(=O)N3CCN(c4cncc(F)c4)CC3)n2)C1 (stereo not drawn) [Example 484] |  |
| 190% | O=C(Cn1nc(C2=CCC(C(F)(F)F)CC2)ccc1=O)N1CCN(c2cncc(F)c2)CC1 (stereo not drawn) [Example 487] |  |
| 29% | O=C(Cn1nc(C2=CCC(F)(F)CC2)ccc1=O)N1CCN(c2cncc(F)c2)CC1 [Example 489] |  |
| 469% | COc1cc(=O)n(CC(=O)N2CCN(c3cncc(F)c3)CC2)nc1C1=CCC(C)(C)CC1 [Example 490] |  |
